In series [1] the test system is HSV-1. In words: Anti-HSV-1 plaque reduction assay in Vero cell monolayers. The series is classed as cell-based. As to conditions: 72 h, read-out: Anti-HSV-1 IC50. The procedure:
The antiviral activities of 1–17 towards HSV-1 were evaluated using plaque reduction assay for the first time.
(§1) Cytotoxic activity was evaluated using Vero cell lines by the MTT method. Anti-HSV-1 activity was determined by plaque assay using monolayer cultures of Vero cells in 24-well culture plates (Corning, New York, NY, USA). Virus suspension containing HSV-1 (30 plaque forming units (PFU)/well) was added to the cell wells and incubated at 37 °C with 5% CO2 for 2 h. The virus inoculum was then removed and overlay medium (maintenance medium containing 1% methylcellulose and various concentrations of tested compound) was added to each well. After another 72 h of incubation, the cell monolayers were fixed with 10% formalin and stained with 1% crystal violet. Plaques were counted and the percentage of inhibition was calculated according to literature. The concentration reducing plaque numbers by 50% was calculated by regression analysis of the dose–response curves generated from the plaque assay and was defined as 50% inhibitory concentration (IC50).
For orientation: Plaque reduction counts the foci of infection that form in a cell layer.

Series [2] relates to Vero cell line. In words: Cytotoxic activity against Vero cell line by MTT method. It is filed as cell-based. As to conditions: non-cytotoxic concentration (TC0). The protocol:
as §1
(Formazan colour is commonly taken as a measure of viable cells.)

Series [3] addresses T1, AChE (Homo sapiens, UniProt P22303).
T1 construct: purchased Sigma
In words: biochemical. The protocol: The inhibitory activities against AChE of compounds were investigated in vitro using the modified Ellman method. Briefly, the reaction mixture containing 20 μL of a different concentrations of the test compunds dissolved in DMSO solution, 450 μL of reaction buffer (0.01 M phosphate buffer, pH 7.0), 10 μL of 0.08-0.10 units/mL AChE (Sigma, one unit hydrolyzes […] of acetylcholineto choline and acetate per min at pH 7.0, 37 °C) and 10 μL of 0.01 M DTNB (Sigma, St. Louis, MO, USA) were filled in a microwell of 24-well polystyrene plate and incubated for 30 min at 37 °C. After preincubation, The reaction was started by adding 20 μL of 0.01 M ATCh (Sigma, St. Louis, MO, USA) solution in 0.01 M phosphate buffer (pH 7.0). Colorimetric measurements (412 nm) were performed on a enspire multimode microplate reader (varioskan flash, Thermo, Waltham, MA, USA). For determining the blank value, the 20 μL of test compound solution was instead of 20 μL of DMSO solution. Each concentration was analyzed in triplicate. […] IC50 values were determined graphically from the regression analysis of concentration-inhibition curves. The IC50 values are the mean ± standard deviations of three independent experiments.

For series [4], the system named is barnacle Balanus amphitrite larvae. In words: Barnacle Balanus amphitrite larval settlement bioassay (antifouling). As to conditions: for EC50: Amphibalanus amphitrite, 24 h, read-out: Antifouling Against B. Amphitrite EC50; for LC50/EC50 values: antifouling activity at nontoxic concentrations, B. amphitrite larvae.
Description: Larval settlement bioassays were performed using sterile 24-well polystyrene plates. Tested samples were dissolved in DMSO to a concentration of 50 μg·mL^−1 for preliminary bioassay. […] About 20 competent larvae were added to each well in 1 mL of the test solution. The experiment was repeated twice with four replicateseach time. Wells containing only FSW with DMSO served as the controls. The plates were incubated at 27 °C for 24 h. The percentage of larval settlement was determined by counting the settled, live individuals under a dissecting microscope and expressing the result as a proportion of the total number of larvae in the well. Statistical calculations were performed with the SPSS software package.
Where [5] appears, read: Human alphaherpesvirus 1, plaque reduction assay in Vero cells, under non-cytotoxic concentrations (TC0).

≈ marks a conversion by molar mass, not a printed value. Like-named read-outs stand apart in the source and are kept apart here.

T1 sequence (P22303 32-614): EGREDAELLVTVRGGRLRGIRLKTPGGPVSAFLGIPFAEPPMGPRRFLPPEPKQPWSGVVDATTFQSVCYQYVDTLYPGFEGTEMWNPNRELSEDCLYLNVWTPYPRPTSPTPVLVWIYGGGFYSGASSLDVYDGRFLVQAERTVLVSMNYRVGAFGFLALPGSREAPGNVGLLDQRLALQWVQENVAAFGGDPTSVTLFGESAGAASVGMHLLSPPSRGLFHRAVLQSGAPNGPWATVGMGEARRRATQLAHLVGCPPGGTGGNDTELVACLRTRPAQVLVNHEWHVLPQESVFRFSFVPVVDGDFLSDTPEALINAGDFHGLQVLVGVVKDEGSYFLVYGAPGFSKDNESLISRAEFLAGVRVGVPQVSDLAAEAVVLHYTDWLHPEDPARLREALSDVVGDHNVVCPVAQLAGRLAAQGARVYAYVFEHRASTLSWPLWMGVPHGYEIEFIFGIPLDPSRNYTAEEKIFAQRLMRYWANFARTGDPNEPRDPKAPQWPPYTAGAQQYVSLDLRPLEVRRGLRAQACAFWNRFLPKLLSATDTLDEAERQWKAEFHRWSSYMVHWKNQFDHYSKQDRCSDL

By IC50 is commonly meant the concentration needed to halve the response being measured. In the case of `Nc1nc2c(ncn2COCCO)c(=O)[nH]1` [Acyclovir, reference compound], the half-maximal inhibitory concentration (IC50) in series [1] (setting [5]) amounted to 34.5 ± 0.7 µg/mL (≈ 153 µM). Also, the “Cytotoxicity Against Vero TC0” value in series [2] is >1000 µg/mL.

By EC50 is commonly meant the concentration that produces a half-maximal response. `COc1cc(-c2cc3c(c(=O)o2)C[C@]2(O)[C@@]4(C)C(=O)C=CC(C)(C)[C@]4(O)CC[C@@]2(C)O3)cc(O)c1OC` [Compound 1, territrem D] gave an IC50 in series [3] of 0.0042 ± 0.0006 µM. The “Cytotoxicity Against Vero TC0” value in series [2] was found to be 25 µg/mL. For the same compound, in series [4], the concentration giving a half-maximal response (EC50) is 12.9 ± 0.5 µg/mL (≈ 25.2 µM) and the LC50/EC50 values was > 100 µg/mL.

`COc1cc(-c2cc3c(c(=O)o2)C[C@]2(O)[C@@]4(C)C(=O)C=CC(C)(C)[C@]4(O)CC[C@@]2(C)O3)ccc1O` [Compound 2, territrem E]: the IC50 in series [3] (modified Ellman method, pH 7.0, 37 °C, mean ± SD of three independent experiments, read-out: Anti-AChE IC50) was found to be 0.0045 ± 0.0006 µM. Moreover, the “Cytotoxicity Against Vero TC0” value in series [2] was determined as 200 µg/mL.

As to `COc1ccc(-c2cc3c(c(=O)o2)C[C@H]2[C@@](C)(CC[C@@]4(O)C(C)(C)OC(=O)CC[C@]24C)O3)cc1` [Compound 3, 11a-dehydroxyisoterreulactone A], the 50% inhibitory concentration (IC50) in series [1] (setting [5]) turned out to be 16.4 ± 0.6 µg/mL (≈ 35 µM). The “Cytotoxicity Against Vero TC0” value in series [2] came to 200 µg/mL.

`COc1cc(-c2cc3c(c(=O)o2)C[C@]2(O)[C@@]4(C)C(=O)C=CC(C)(C)[C@]4(O)CC[C@@]2(C)O3)cc(OC)c1OC` [Compound 4, territrem B] came in with a half-inhibitory concentration (IC50) in series [3] of 0.0042 ± 0.0006 µM. In series [2], the “Cytotoxicity Against Vero TC0” value was 25 µg/mL.

Compound `COc1cc(-c2cc3c(c(=O)o2)C[C@]2(O)[C@@]4(C)C(=O)C=CC(C)(C)[C@]4(O)CC[C@@]2(C)O3)cc(OC)c1O` [Compound 5, territrem C] came in with a half-inhibitory concentration (IC50) in series [3] of 0.0201 ± 0.0033 µM. In addition, the “Cytotoxicity Against Vero TC0” value in series [2] was >25 µg/mL.

Turning to `COc1ccc(-c2cc3c(c(=O)o2)C[C@]2(O)[C@@]4(C)C(=O)C=CC(C)(C)[C@]4(O)CC[C@@]2(C)O3)cc1OC` [Compound 6, arisugacin A], the IC50 is 0.0119 ± 0.0021 µM in series [3] and 6.34 ± 0.4 µg/mL (≈ 12.8 µM) in series [1] (Human alphaherpesvirus 1, Vero). In addition, the “Cytotoxicity Against Vero TC0” value in series [2] is 100 µg/mL.

Turning to `COc1ccc(-c2cc3c(c(=O)o2)C[C@]2(O)[C@@]4(C)[C@@H](O)C[C@@H](OC(C)=O)C(C)(C)[C@]4(O)CC[C@@]2(C)O3)cc1` [Compound 7, arisugacin H], the half-inhibitory concentration (IC50) in series [3] (modified Ellman method, value printed in μM in text, read-out: Anti-AChE IC50) was determined as 5.7 ± 0.8 µM. For the same compound, the “Cytotoxicity Against Vero TC0” value in series [2] was 100 µg/mL.

In the case of `COc1ccc(-c2cc3c(c(=O)o2)C[C@]2(O)[C@@]4(C)CCC(=O)C(C)(C)[C@]4(O)CC[C@@]2(C)O3)cc1` [Compound 8, terreulactone C], the concentration for half-maximal inhibition (IC50) in series [3] is 0.05 ± 0.0015 µM. In series [2], the “Cytotoxicity Against Vero TC0” value is >25 µg/mL.

As to `COC1(Cc2ccc(O)cc2)OC(=O)C(O)=C1c1ccc(O)cc1` (stereo not shown) [Compound 10, isobutyrolactone II], in series [1] (setting [5]), the IC50 was found to be 21.8 ± 1.8 µg/mL (≈ 66.4 µM). For the same compound, the “Cytotoxicity Against Vero TC0” value in series [2] came out at 200 µg/mL.

On to `COC(=O)[C@]1(Cc2ccc3c(c2)C[C@H](O)C(C)(C)O3)OC(=O)C(O)=C1c1ccc(O)cc1` [Compound 11, butyrolactone V], for which, in series [4], the concentration giving a half-maximal response (EC50) is 22.1 ± 0.8 µg/mL (≈ 50.2 µM) and the LC50/EC50 values is > 100 µg/mL.

As to `COC(=O)[C@]1(Cc2ccc3c(c2)CCC(C)(C)O3)OC(=O)C(O)=C1c1ccc(O)cc1` [Compound 12, aspernolide A], in series [1] (setting [5]), the IC50 worked out at 28.9 ± 1.8 µg/mL (≈ 68.1 µM). Moreover, the “Cytotoxicity Against Vero TC0” value in series [2] was found to be 100 µg/mL. In series [4], the half-maximal effective concentration (EC50) was 7.4 ± 0.6 µg/mL (≈ 17.4 µM) and the LC50/EC50 values is > 100 µg/mL.

For `COC(=O)[C@]1(Cc2ccc(O)c(CCC(C)(C)O)c2)OC(=O)C(O)=C1c1ccc(O)cc1` [Compound 15, aspernolide B], in series [4], the EC50 is 16.1 ± 0.6 µg/mL (≈ 36.4 µM) and the LC50/EC50 values was > 100 µg/mL.

(Values after PMC4278221, “Territrem and Butyrolactone Derivatives from a Marine-Derived Fungus Aspergillus Terreus” (Marine Drugs, 2014).)
